Experimental data: patent US20240033244A1, “COMPOSITIONS AND METHODS FOR INHIBITING YTHDF1” (SHANGHAI INSTITUTE OF MATERIA MEDICA, CHINESE ACADEMY OF …, priority 2020, published 2024)

What was measured:
[1] = biological target: T1, YTHDF1 mutant F480A (Homo sapiens, UniProt Q9BYJ9, F480A); test: FP assay with YTHDF1 mutant F480A; type: binding
T1 construct: GST (N, cleaved yes); made in house; host or cells: E. coli BL21 (DE3)
Protocol: (§1) The protein YTHDF1 (361-559) (SEQ ID NO: 2) and its mutants (SEQ ID NOs: 4-13) were cloned into pGEx-6P-1 vector (obtained from YouBio Co, Ltd, Catalog NO: VT1258), and the His-YTHDF1 (361-559) (SEQ ID NO: 3) used in AlphaScreen Assay was cloned into modified pET28a vector (obtained from YouBio Co, Ltd, Catalog NO: VT1207). The vectors were transformed into E. coli BL21 (DE3) cells and cultured at 37° C. When OD value reached 0.6˜0.8, 1 mM Isopropyl-β-D-thiogalactopyranoside was added to overexpress the protein at 16° C. overnight. […] Then, the proteins were further purified via cation exchange (HiTrap SP, GE Healthcare) and finally through a Superdex 75 10/300 column (GE Healthcare). At last, the purified YTHDF1(361-559) and the mutants were kept in buffer which contains 20 mM Hepes (pH 7.4) and 200 mM NaCl. For His-YTHDF1 (361-559), the protein was purified via Ni-NTA chromatography (HisTrap FF, GE Healthcare), followed by cation exchange and Superdex 75 10/300 column in sequence. And the obtained protein was kept in the buffer with the same ingredients.
(§2) All of the YTHDF1 (361-559), the 5′-FAM labeled m^6A-containing mRNA (5′-FAM-[…] (m^6A) CUGUG-3′, SEQ ID NO: 14) and the candidate compounds were diluted with assay buffer (20 mM Hepes (pH 7.4), 50 mM NaCl, 0.01% (v/v) tween 20, 5% (v/v) glycerol). […] At last, the mixtures were measured by Envision Readers (PerkinElmer). […]

[2] = biological target: T2, His-YTHDF1 (361-559) (Homo sapiens, UniProt Q9BYJ9); test: AlphaScreen-based assay, m6A-containing mRNA binding to YTHDF1; settings: read-out: IC50, blocking binding between m6A and YTHDF1
T2 construct: made in house; host or cells: E. coli BL21 (DE3)
T2 sequence (Q9BYJ9 with tags, fused parts or gaps): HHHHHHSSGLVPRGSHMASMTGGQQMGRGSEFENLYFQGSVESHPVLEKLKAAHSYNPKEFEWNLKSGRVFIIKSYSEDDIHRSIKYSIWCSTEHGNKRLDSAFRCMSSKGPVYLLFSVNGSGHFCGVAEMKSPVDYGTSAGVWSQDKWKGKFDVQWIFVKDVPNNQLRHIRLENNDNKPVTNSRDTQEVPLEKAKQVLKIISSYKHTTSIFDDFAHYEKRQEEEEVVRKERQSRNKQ
Protocol: Then 10 nM biotinylated m^6A-containing mRNA (5′-biotin-[…] (m^6A) CUGUG-3′) (SEQ ID NO: 15) was added to bind with YTHDF1 (361-559), and unbiotinylated m^6A-containing mRNA was used as the positive control. Before Alpha signal detection, streptavidin donor beads and anti-His acceptor beads were added into the white assay plate in subdued light (OptiPlate™-384, PerkinElmer) and incubated at 4° C. for 1 hour to ensure sufficient binding between biotin tag and streptavidin donor beads, as well as that between His tag and anti-His acceptor beads. Then the Alpha signal was detected on Envision Readers (PerkinElmer).

[3] = biological target: T3, YTHDF1 (361-559) (Homo sapiens, UniProt Q9BYJ9); test: Hydrogen deuterium exchange mass spectrometry (HDX MS); type: binding; settings: HDX 10 s to 14400 s; many peptides HDX variation over 5%
T3 construct: GST (N, cleaved yes); made in house; host or cells: E. coli BL21 (DE3)
T3 sequence (Q9BYJ9 with tags, fused parts or gaps): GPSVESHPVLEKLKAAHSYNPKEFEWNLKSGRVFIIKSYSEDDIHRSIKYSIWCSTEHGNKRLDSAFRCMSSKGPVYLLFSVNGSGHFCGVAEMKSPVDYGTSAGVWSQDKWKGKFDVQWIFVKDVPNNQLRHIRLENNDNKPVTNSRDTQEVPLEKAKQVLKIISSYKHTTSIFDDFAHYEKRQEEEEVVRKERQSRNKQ
Protocol: YTHDF1 (361-559) was incubated with the compound (e.g., SAA) at 4° C. overnight before the measurement. In hydrogen deuterium exchange mass spectrometry (HDX MS), the hydrogen atoms of YTHDF1 (361-559)-apo and YTHDF1 (361-559)-SAA were exchanged with deuterium for 0 s, 10 s, 30 s, 60 s, 1200 s, 3600 s and 14400 s respectively at 10° C. in buffer containing 20 mM Hepes (pH 7.4), 200 mM NaCl and D2O. And the reactions were stopped at 0.5° C. using buffer containing 4 M guanidine hydrochloride, 0.5 M TCEP and 100 mM citric acid (pH 2.3). After deuterium label reaction, the samples were digested at 4° C. by pepsin immobilized on the column in order to obtain peptides of the samples. These peptides were next separated by HPLC and analyzed via mass spectrometry, respectively. HDX MS data was analyzed in HDExaminer software (v2.4.1) and +5% were set as the threshold to pick out those peptides with significant change.
Then, hydrogen deuterium exchange mass spectrometry (HDX MS) experiment was conducted, to determine the binding sites of SAA on YTHDF1.

[4] = biological target: T4, YTHDF1 mutant W384A (Homo sapiens, UniProt Q9BYJ9, W384A); test: FP assay with YTHDF1 mutant W384A; type: binding
T4 construct: GST (N, cleaved yes); made in house; host or cells: E. coli BL21 (DE3)
Protocol: as §1, §2

T4 sequence (Q9BYJ9 with tags, fused parts or gaps W384A): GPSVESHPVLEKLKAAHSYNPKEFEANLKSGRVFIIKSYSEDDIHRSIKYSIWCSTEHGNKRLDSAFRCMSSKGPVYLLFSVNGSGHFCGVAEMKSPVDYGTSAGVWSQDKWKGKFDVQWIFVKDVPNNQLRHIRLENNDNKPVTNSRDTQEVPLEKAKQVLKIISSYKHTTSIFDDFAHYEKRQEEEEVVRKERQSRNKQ
T1 sequence (Q9BYJ9 with tags, fused parts or gaps F480A): as the sequence (Q9BYJ9 with tags, fused parts or gaps W384A) above, with A26W, F122A counted along it

IC50 [2]: 860 ± 60 nM
conformational change of YTHDF1 on binding (deuterium uptake) [3]: significant conformational changes
SMILES: O=C(/C=C/c1ccc(O)c(O)c1/C=C/c1ccc(O)c(O)c1)O[C@H](Cc1ccc(O)c(O)c1)C(=O)O [SAA, Salvianolic Acid A]
inhibitory activity against mutant binding to m6A versus wildtype [1]: significantly weaker than that against wildtype YTHDF1
inhibitory activity against mutant binding to m6A versus wildtype [4]: significantly weaker than that against wildtype YTHDF1
